The text below walks through data of patent US20240368191A1, “HETEROCYCLIC COMPOUNDS AND USES THEREOF” (Kumquat Biosciences Inc., priority 2021, published 2024).

Experiment [1] addresses T1, KRAS G12S 1-169 (His-tagged, GDP-loaded) (Homo sapiens, UniProt P01116, G12S).
T1 construct: His -tagged GDP-loaded G12S 1-169; made in house; host or cells: E. coli, e.g. BL21 (DE3)
The experiment in a line: Covalent modification of KRAS protein by intact-protein LC-MS. Type of experiment: binding. Particulars: KRAS G12S, 24 hr. A digest of the protocol:
(§1)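 Percent modification is derived from deconvoluted intact-protein LC-ESI-MS peak intensities of adducted versus unmodified KRAS. GDP-loaded His-tagged KRAS 1-169 (~2 μM, HEPES buffer at physiological conditions) was exposed to compound for 24 hrs at room temperature, then quenched with formic acid before C4 reversed-phase separation.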

Experiment [2] deals with T2, KRAS G12D 1-169 (His-tagged, GDP-loaded) (Homo sapiens, UniProt P01116, G12D).
T2 construct: His -tagged GDP-loaded G12D 1-169; made in house; host or cells: E. coli, e.g. BL21 (DE3)
The experiment is described as above. Type of experiment: binding. The conditions noted are these: comparable or same conditions as K-Ras G12S. A digest of the protocol: as §1

For the next experiment, the target named is T3, K-Ras G12S (Homo sapiens, UniProt P01116, G12S).
T3 construct: made in house; host or cells: E. coli, e.g. BL21 (DE3)
The experiment in a line: HTRF assay, K-Ras G12S / SOS1 interaction. Particulars: IC50 against K-Ras G12D divided by IC50 against K-Ras G12S. Type of experiment: biochemical. The text has this: This assay can be also used to assess a selective inhibition or reduction of signaling output of a mutant Ras protein relative to a wildtype, or relative to a different mutant Ras protein. For example, the equilibrium interaction of wildtype Kras or K-Ras mutant (e.g., wildtype or a mutant thereof including those mentioned in Example 6) with SOS1 (e.g., hSOS1) can be assessed as a proxy or an indication for a subject compound's ability to bind and inhibit Ras protein. HTRF assay detects from (i) a fluorescence resonance energy transfer (FRET) donor (e.g., antiGST-Europium) that is bound to GST-tagged K-Ras mutant to (ii) a FRET acceptor (e.g., anti-6His -XL665) bound to a His -tagged hSOS1.
The assay buffer can contain ˜5 mM HEPES pH 7.4, ˜150 mM NaCl, ˜1 mM DTT, 0.05% BSA and 0.0025% (v/v) Igepal. A Ras working solution is prepared in an assay buffer containing typically a suitable amount of the protein construct (e.g., GST-tagged K-Ras mutant) and the FRET donor (e.g., antiGST-Eu(K) from Cisbio, France). A SOS1 working solution is prepared in an assay buffer containing suitable amount of the protein construct (e.g., His -hSOS1) and the FRET acceptor (e.g., anti-6His -XL665 from Cisbio, France). A suitable amount of the protein construct will depend on the range of activity or range of IC50 values being detected or under investigation. For detecting IC50 within a range of 500 nM, the protein constructs of the same range of molarity can be utilized.
A fixed volume of DMSO with or without test compound is transferred into a 384-well plate. Ras working solution is added to all wells of the test plate. SOS1 working solution is added to all wells except for those that are subsequently filled the inhibitor control solution. Upon incubation for about 10 minutes or longer, the fluorescence is measured with a M1000Pro plate reader (Tecan) using HTRF detection (excitation 337 nm, emission 1: 620 nm, emission 2: 665 nm). Compounds are tested in duplicates at different concentrations (for example, 10 μM, 2.5 μM, 0.63 μM, 0.16 μM, 0.04 μM, 0.01 μM test compound). The ratiometric data (i.e., emission 2 divided by emission 1) is used to calculate IC50 values against Ras using GraphPad Prism (GraphPad software). Following this general procedure, samples were tested with or without a subject compound disclosed herein including compounds exemplified in Table 3 to assess their abilities to inhibit K-Ras G12S relative to another mutant (e.g., K-Ras G12D). Signaling output measured in terms of IC50 values can be obtained, a ratio of IC50 against one mutant relative to another mutant can be calculated. For instance, a selective reduction of K-Ras G12S signaling output can be evidenced by a ratio greater than one. In particular, a selective reduction of K-Ras G12S signaling relative to K-Ras G12D signaling is evidenced as the ratio of IC50 (against K-Ras G12D) to IC50 (against K-Ras G12S) is greater than 1.

Turning to “2-amino-4-(6-chloro-4-(8-(5- chloro-1H-1,2,4-triazole-1- carbonyl)-3,8-diazabicyclo- [3.2.1]octan-3-yl)-8-fluoro-2- (((2R,7aS)-2-fluorotetrahydro- 1H-pyrrolizin-7a(5H)-yl)meth- oxy)quinazolin-7-yl)-7-fluoro- benzo[b]thiophene-3-carbonitrile [Compound A194]”, the “% G12S Modification at 24 hr.” value in experiment [1] is reported as “++ (++ indicates between about 1%-20% labelling)”. In addition, the “covalent labeling of K-Ras G12D” value in experiment [2] is given as “essentially no detectable labeling”. Besides, the “Ratio of IC50 KRAS G12D vs. IC50 KRAS G12S” value (from here on “Ratio”) on K-Ras G12S is “A (A: indicates that the ratio of IC50 against KrasG12D vs. IC50 against KrasG12S is 1-fold or greater)”.

As to `N#Cc1cn(C(=O)N2CCC(Nc3nc(OC[C@@]45CCCN4C[C@H](F)C5)nc4c(F)c(-c5ccc(F)c6sc(N)nc56)c(Cl)cc34)CC2)cn1` [Compound A160, 1-(4-((7-(2-amino-7-fluorobenzo-[d]thiazol-4-yl)-6-chloro-8-fluoro-2-(((2R,7aS)-2-fluoro-tetrahydro-1H-pyrrolizin-7a(5H)-yl)methoxy)quinazolin-4-yl)amino)piperidine-1-car-bonyl)-1H-imidazole-4-carbo-nitrile], at K-Ras G12S, the “Ratio” value is “A (A: indicates that the ratio of IC50 against KrasG12D vs. IC50 against KrasG12S is 1-fold or greater)”.

For the compound `N#Cc1nccn1C(=O)N1C2CCC1CN(c1nc(OC[C@@]34CCCN3C[C@H](F)C4)nc3c(F)c(-c4ccc(F)c5sc(N)nc45)c(Cl)cc13)C2` [Compound A170, 1-(3-(7-(2-amino-7-fluorobenzo-[d]thiazol-4-yl)-6-chloro-8-fluoro-2-(((2R,7aS)-2-fluoro-tetrahydro-1H-pyrrolizin-7a(5H)-yl)methoxy)quinazolin-4-yl)-3,8-diazabicyclo[3.2.1]-octane-8-carbonyl)-1H-imid-azole-2-carbonitrile], the “% G12S Modification at 24 hr.” value in experiment [1] is given as “++ (++ indicates between about 1%-20% labelling)”.

Consider `Nc1nc2c(-c3c(Cl)cc4c(N[C@H]5C[C@H]6CC[C@@H](C5)N6C(=O)n5cncn5)nc(OC[C@@]56CCCN5C[C@H](F)C6)nc4c3F)ccc(F)c2s1` [Compound A207, ((1R,3r,5S)-3-((7-(2-amino-7-fluorobenzo[d]thiazol-4-yl)-6-chloro-8-fluoro-2-(((2R,7aS)-2-fluorotetrahydro-1H-pyrrolizin-7a(5H)-yl)methoxy)quinazolin-4-yl)amino)-8-azabicyclo[3.2.1]-octan-8-yl)(1H-1,2,4-triazol-1-yl)methanone], for which the “% G12S Modification at 24 hr.” value in experiment [1] is “+++ (+++ indicates greater than 20% labelling)”. For the same compound, the “Ratio” value at K-Ras G12S is “A (A: indicates that the ratio of IC50 against KrasG12D vs. IC50 against KrasG12S is 1-fold or greater)”.

On to `Cc1nc(C(C)C)nn1C(=O)N1CC2(C1)CN(c1nc(OC[C@@]34CCCN3C[C@H](F)C4)nc3c(F)c(-c4ccc(F)c5sc(N)c(C#N)c45)c(Cl)cc13)CCO2` [Compound A208, 2-amino-4-(6-chloro-8-fluoro-2-(((2R,7aS)-2-fluorotetrahydro-1H-pyrrolizin-7a(5H)-yl)meth-oxy)-4-(2-(3-isopropyl-5-meth-yl-1H-1,2,4-triazole-1-carbon-yl)-5-oxa-2,8-diazaspiro[3.5]-nonan-8-yl)quinazolin-7-yl)-7-fluorobenzo[b]thiophene-3-carbonitrile], for which the “Ratio” value on K-Ras G12S is “A (A: indicates that the ratio of IC50 against KrasG12D vs. IC50 against KrasG12S is 1-fold or greater)”.

Turning to `C#Cc1c(F)ccc2cc(O)cc(-c3ncc4c(N5CC6CCC(C5)N6C(=O)n5cnc(C#N)c5)nc(OC[C@@]56CCCN5C[C@H](F)C6)nc4c3F)c12` [Compound A255, 1-(3-(7-(8-ethynyl-7-fluoro-3-hydroxynaphthalen-1-yl)-8-fluoro-2-(((2R,7aS)-2-fluoro-tetrahydro-1H-pyrrolizin-7a(5H)-yl)methoxy)pyrido[4,3-d]pyrimidin-4-yl)-3,8-diaza-bicyclo[3.2.1]octane-8-carbon-yl)-1H-imidazole-4-carbonitrile], in experiment [1], the “% G12S Modification at 24 hr.” value was “++ (++ indicates between about 1%-20% labelling)”. Moreover, in experiment [2], the “covalent labeling of K-Ras G12D” value is reported as “essentially no detectable labeling”.

With `N#Cc1c(N)sc2c(F)ccc(-c3c(Cl)cc4c(N[C@H]5C[C@H]6CC[C@@H](C5)N6C(=O)n5cncn5)nc(OC[C@@]56CCCN5C[C@H](F)C6)nc4c3F)c12` [Compound A257, 4-(4-(((1R,3r,5S)-8-(1H-1,2,4-triazole-1-carbonyl)-8-aza-bicyclo-[3.2.1]octan-3-yl)-amino)-6-chloro-8-fluoro-2-(((2R,7aS)-2-fluorotetrahydro-1H-pyrrolizin-7a(5H)-yl)meth-oxy)quinazolin-7-yl)-2-amino-7-fluorobenzo[b]thiophene-3-carbonitrile], the “% G12S Modification at 24 hr.” value in experiment [1] is recorded as “++ (++ indicates between about 1%-20% labelling)”. For the same compound, the “covalent labeling of K-Ras G12D” value in experiment [2] is “essentially no detectable labeling”.

As for `N#Cc1c(N)sc2c(F)ccc(-c3c(Cl)cc4c(N5CCN(C(=O)n6cncn6)CC(F)(F)C5)nc(OC[C@@]56CCCN5C[C@H](F)C6)nc4c3F)c12` [Compound A280, 2-amino-4-(6-chloro-4-(6,6-difluoro-4-(1H-1,2,4-triazole-1-carbonyl)-1,4-diazepan-1-yl)-8-fluoro-2-(((2R,7aS)-2-fluoro-tetrahydro-1H-pyrrolizin-7a(5H)-yl)methoxy)quinazolin-7-yl)-7-fluorobenzo[b]thio-phene-3-carbonitrile], the “% G12S Modification at 24 hr.” value in experiment [1] is on record as “+++ (+++ indicates greater than 20% labelling)”. Also, the “covalent labeling of K-Ras G12D” value in experiment [2] was “essentially no detectable labeling”.

Turning to “(4-((7-(2-amino-7-fluorobenzo- [d]thiazol-4-yl)-6-chloro-8- fluoro-2-(((2R,7aS)-2-fluoro- tetrahydro-1H-pyrrolizin- 7a(5H)-yl)methoxy)quinazolin- 4-yl)amino)piperidin-1-yl)(2- chloro-1H-imidazol-1-yl)meth- anone [Compound A159]”, the “Ratio” value on K-Ras G12S is “A (A: indicates that the ratio of IC50 against KrasG12D vs. IC50 against KrasG12S is 1-fold or greater)”.
